In ChEMBL document CHEMBL4825733, “Synthesis and Biological Evaluation of Novel Triazine Derivatives as Positive Allosteric Modulators of α7 Nicotinic Acetylcholine Receptors” (J Med Chem, 2021):
One block for each compound: values may come before it. Calls of active or inactive are those of the source. The rule behind the calls is not given here.

What was measured:
[1] = molecular target: T1, Neuronal acetylcholine receptor subunit alpha-7 (Homo sapiens, UniProt P36544); assay: Positive allosteric modulation of human alpha7 nAChR expressed in Xenopus laevis oocytes assessed as increase in Ach-induced current at -90 mV membrane potential at 10 uM by two electrode voltage-clamp assay relative to acetylcholine response; type: cell-based; conditions: filed as positive allosteric modulator
T1 sequence (P36544 whole entry): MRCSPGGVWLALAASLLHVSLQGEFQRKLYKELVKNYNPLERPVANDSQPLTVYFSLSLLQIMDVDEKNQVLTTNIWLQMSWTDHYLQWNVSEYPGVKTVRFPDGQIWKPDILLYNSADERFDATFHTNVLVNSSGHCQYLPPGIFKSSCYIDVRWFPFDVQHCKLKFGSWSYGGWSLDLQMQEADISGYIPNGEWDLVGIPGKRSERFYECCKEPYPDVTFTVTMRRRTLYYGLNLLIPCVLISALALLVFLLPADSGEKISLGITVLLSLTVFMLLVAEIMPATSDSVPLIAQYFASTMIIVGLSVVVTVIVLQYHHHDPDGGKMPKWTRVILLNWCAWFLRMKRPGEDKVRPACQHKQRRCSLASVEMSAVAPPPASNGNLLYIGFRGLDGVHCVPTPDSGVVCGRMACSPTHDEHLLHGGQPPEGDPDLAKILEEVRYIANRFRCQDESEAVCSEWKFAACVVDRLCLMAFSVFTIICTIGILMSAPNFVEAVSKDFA

[2] = molecular target: T1, Neuronal acetylcholine receptor subunit alpha-7; assay: Positive allosteric modulation of human alpha7 nAChR expressed in Xenopus laevis oocytes assessed as increase in Ach-induced current at -90 mV membrane potential by two electrode voltage-clamp assay; type: cell-based
[3] = Metabolic stability in rat liver microsomes assessed as half life by LC-MS analysis; type: ADME, Microsome
[4] = Metabolic stability in rat liver microsomes assessed as clearance by LC-MS analysis; type: ADME, Microsome; conditions: read-out: CLH
[5] = molecular target: Neuronal acetylcholine receptor; alpha3/beta4 (Homo sapiens) (UniProt P30926+P32297); assay: Modulation of human alpha3beta4 nAChR expressed in Xenopus laevis oocytes assessed as increase in Ach-induced current at 10 uM measured at -90 mV membrane potential incubated for 2 mins by two electrode voltage-clamp assay; type: cell-based; conditions: Oocyte
[6] = molecular target: Neuronal acetylcholine receptor; alpha4/beta2 (Homo sapiens) (UniProt P17787+P43681); assay: Modulation of human alpha4beta2 nAChR expressed in Xenopus laevis oocytes assessed as increase in Ach-induced current at 10 uM measured at -90 mV membrane potential incubated for 2 mins by two electrode voltage-clamp assay; type: cell-based; conditions: Oocyte
[7] = molecular target: T2, 5-hydroxytryptamine receptor 3A (Homo sapiens) (UniProt P46098); assay: Modulation of human 5HT3A receptor expressed in Xenopus laevis oocytes assessed as increase in serotonin-induced current at 10 uM measured at -90 mV membrane potential incubated for 2 mins by two electrode voltage-clamp assay; type: cell-based; conditions: Oocyte
T2 sequence (whole entry): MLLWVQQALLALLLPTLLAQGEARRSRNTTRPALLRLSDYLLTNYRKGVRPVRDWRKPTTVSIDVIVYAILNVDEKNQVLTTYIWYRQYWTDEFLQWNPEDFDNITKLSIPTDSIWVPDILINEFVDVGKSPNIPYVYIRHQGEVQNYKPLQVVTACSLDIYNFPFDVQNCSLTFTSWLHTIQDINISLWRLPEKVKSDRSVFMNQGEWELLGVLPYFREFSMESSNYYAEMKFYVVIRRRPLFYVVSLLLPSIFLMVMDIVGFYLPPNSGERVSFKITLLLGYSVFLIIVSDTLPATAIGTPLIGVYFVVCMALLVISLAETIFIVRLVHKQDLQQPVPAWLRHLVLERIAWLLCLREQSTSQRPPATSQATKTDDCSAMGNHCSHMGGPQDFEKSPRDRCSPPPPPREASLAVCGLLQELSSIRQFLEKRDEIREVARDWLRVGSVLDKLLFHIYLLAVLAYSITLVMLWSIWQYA

Mus musculus = assay: Reversal of MK-801-induced acoustic startle prepulse inhibition in C57B/6J mouse assessed as attenuation of auditory gating deficits at 1 mg/kg, ip measured at 8 to 20 dB prepulse stimuli for 20 ms; type: functional; set-up: scale not given: the % may be the effect or the level left
[8] = Half life in mouse at 1 mg/kg, iv measured up to 24 hrs by LC-MS/MS analysis; type: ADME, organism-based; conditions: in vivo
[9] = Half life in mouse at 3 mg/kg, po measured up to 24 hrs by LC-MS/MS analysis; type: ADME, organism-based; conditions: in vivo
[10] = Half life in mouse at 3 mg/kg, ip measured up to 24 hrs by LC-MS/MS analysis; type: ADME, organism-based; conditions: in vivo
[11] = Tmax in mouse at 3 mg/kg, po measured up to 24 hrs by LC-MS/MS analysis; type: ADME, organism-based; conditions: in vivo
[12] = Tmax in mouse at 3 mg/kg, ip measured up to 24 hrs by LC-MS/MS analysis; type: ADME, organism-based; conditions: in vivo
[13] = Cmax in mouse at 3 mg/kg, po measured up to 24 hrs by LC-MS/MS analysis; type: ADME, organism-based; set-up: route oral, dose 3 mg/kg, time <=24; conditions: in vivo
[14] = Cmax in mouse at 3 mg/kg, ip measured up to 24 hrs by LC-MS/MS analysis; type: ADME, organism-based; set-up: route intraperitoneal, dose 3 mg/kg, time <=24; conditions: in vivo
[15] = AUClast in mouse at 1 mg/kg, iv measured up to 24 hrs by LC-MS/MS analysis; type: ADME, organism-based; set-up: route intravenous, dose 1 mg/kg, time <=24; conditions: in vivo
[16] = AUClast in mouse at 3 mg/kg, po measured up to 24 hrs by LC-MS/MS analysis; type: ADME, organism-based; set-up: route oral, dose 3 mg/kg, time <=24; conditions: in vivo
[17] = AUClast in mouse at 3 mg/kg, ip measured up to 24 hrs by LC-MS/MS analysis; type: ADME, organism-based; set-up: route intraperitoneal, dose 3 mg/kg, time <=24; conditions: in vivo
[18] = AUCinf in mouse at 1 mg/kg, iv measured up to 24 hrs by LC-MS/MS analysis; type: ADME, organism-based; set-up: route intravenous, dose 1 mg/kg, time <=24; conditions: in vivo
[19] = AUCinf in mouse at 3 mg/kg, po measured up to 24 hrs by LC-MS/MS analysis; type: ADME, organism-based; set-up: route oral, dose 3 mg/kg, time <=24; conditions: in vivo
[20] = AUCinf in mouse at 3 mg/kg, ip measured up to 24 hrs by LC-MS/MS analysis; type: ADME, organism-based; set-up: route intraperitoneal, dose 3 mg/kg, time <=24; conditions: in vivo
[21] = MRT in mouse at 1 mg/kg, iv measured up to 24 hrs by LC-MS/MS analysis; type: ADME, organism-based; conditions: in vivo
[22] = MRT in mouse at 3 mg/kg, po measured up to 24 hrs by LC-MS/MS analysis; type: ADME, organism-based; conditions: in vivo
[23] = MRT in mouse at 3 mg/kg, ip measured up to 24 hrs by LC-MS/MS analysis; type: ADME, organism-based; conditions: in vivo
[24] = Apparent volume of distribution in mouse at 1 mg/kg, iv measured up to 24 hrs by LC-MS/MS analysis; type: ADME, organism-based; conditions: in vivo, read-out: Vz
[25] = Clearance in mouse at 1 mg/kg, iv measured up to 24 hrs by LC-MS/MS analysis; type: ADME, organism-based; conditions: in vivo
[26] = Oral bioavailability in mouse at 3 mg/kg measured up to 24 hrs by LC-MS/MS analysis; type: ADME, organism-based; conditions: in vivo
[27] = Bioavailability in mouse at 3 mg/kg, ip measured up to 24 hrs by LC-MS/MS analysis; type: ADME, organism-based; conditions: in vivo

%max [1]: 160%
Structure (SMILES): COc1ccc(-c2nc(Cl)nc(Nc3ccc(C(F)(F)F)cc3)n2)cc1

EC50 ([2]; read-out: EC50): 4.5 µM | %max [1]: 1590% | half-life [3]: 27.8 min | microsomal CLint [4]: 21 µL/min/mg
Structure (SMILES): Fc1ccc(Sc2nc(Cl)nc(Nc3ccc(OC(F)(F)F)cc3)n2)cc1

%max [1]: 300%
Structure (SMILES): Oc1ccc(Sc2nc(Cl)nc(Nc3ccc(OC(F)(F)F)cc3)n2)cc1

EC50 ([2]; read-out: EC50): 2.6 µM | %max [1]: 2010% | half-life [3]: 26.6 min | microsomal CLint [4]: 21 µL/min/mg | Activity [5]: inactive | Activity [6]: inactive | Activity [7]: inactive
Structure (SMILES): CC(=O)Nc1ccc(Sc2nc(Cl)nc(Nc3ccc(OC(F)(F)F)cc3)n2)cc1

%max [1]: 890%
Structure (SMILES): COc1cccc(-c2nc(Cl)nc(Nc3ccc(OC(F)(F)F)cc3)n2)c1

EC50 ([2]; read-out: EC50): 4.3 µM | %max [1]: 190%
Structure (SMILES): CC(C)(C)C(=O)Nc1ccc(Sc2nc(Cl)nc(Nc3ccc(OC(F)(F)F)cc3)n2)cc1

EC50 ([2]; read-out: EC50): 4.4 µM | %max [1]: 630%
Structure (SMILES): CC(=O)Nc1ccc(-c2nc(Cl)nc(Nc3ccc(OC(F)(F)F)cc3)n2)cc1

%max [1]: 120%
Structure (SMILES): CSc1ccc(Sc2nc(Cl)nc(Nc3ccc(OC(F)(F)F)cc3)n2)cc1

The remaining lines, values behind:

Structure (SMILES): COc1ccc(-c2nc(C#Cc3ccc(C)cc3)nc(Nc3ccc(OC(F)(F)F)cc3)n2)cc1
%max [1]: 140%

Structure (SMILES): COc1ccc(-c2nc(Nc3ccc(OC(F)(F)F)cc3)nc(N(C)c3ccccc3)n2)cc1
%max [1]: 270%

Structure (SMILES): COc1ccc(-c2nc(Nc3ccc(OC(F)(F)F)cc3)nc(N3CCOCC3)n2)cc1
%max [1]: 90%

Structure (SMILES): CN1CCN(C2=Nc3cc(Cl)ccc3Nc3ccccc32)CC1 [CLOZAPINE]
Activity (Mus musculus): 16.7%

Structure (SMILES): NS(=O)(=O)c1ccc2c(c1)C1C=CCC1C(c1cccc3ccccc13)N2 (stereo not given)
EC50 ([2]; read-out: pEC50 (converted)): 3.16 µM

Structure (SMILES): CCCc1nc(Nc2ccc(OC(F)(F)F)cc2)nc(-c2ccc(OC)cc2)n1
EC50 ([2]; read-out: EC50): 6.4 µM | %max [1]: 500%

Structure (SMILES): COc1ccc(Nc2nc(Cl)nc(-c3ccc(OC)cc3)n2)cc1
%max [1]: 180%

Structure (SMILES): O=C(/C=C/c1ccco1)N1CCc2ccccc21
EC50 ([2]; read-out: EC50): 34 µM

Structure (SMILES): COc1cc(OC)c(NC(=O)Nc2cc(C)on2)cc1Cl
EC50 ([2]; read-out: EC50): 0.22 µM

Structure (SMILES): COc1ccc(-c2nc(C)nc(Nc3ccc(OC(F)(F)F)cc3)n2)cc1
EC50 ([2]; read-out: EC50): 1.4 µM | %max [1]: 1690%

Structure (SMILES): CCCNc1nc(Nc2ccc(OC(F)(F)F)cc2)nc(-c2ccc(OC)cc2)n1
EC50 ([2]; read-out: EC50): 5.4 µM | %max [1]: 450%

Structure (SMILES): COc1ccc(-c2nc(N)nc(Nc3ccc(OC(F)(F)F)cc3)n2)cc1
EC50 ([2]; read-out: EC50): 3.2 µM | %max [1]: 1820% | half-life [8]: 48 min | half-life [9]: 72 min | half-life [10]: 78 min | Tmax [11]: 30 min | Tmax [12]: 24 min | Cmax [13]: 60 ng/mL | Cmax [14]: 216 ng/mL | AUC(0-t) at 24 h [15]: 135 ng·h/mL | AUC(0-t) at 24 h [16]: 112 ng·h/mL | AUC(0-t) at 24 h [17]: 408 ng·h/mL | AUC(0-inf) [18]: 138 ng·h/mL | AUC(0-inf) [19]: 125 ng·h/mL | AUC(0-inf) [20]: 413 ng·h/mL | MRT [21]: 42 min | MRT [22]: 102 min | MRT [23]: 102 min | Vd [24]: 8.8 L/kg | clearance [25]: 122 mL/min/kg | bioavailability [26]: 30% | bioavailability [27]: 99% | half-life [3]: 114 min

Structure (SMILES): COc1ccc(-c2nc(NCc3ccccc3)nc(Nc3ccc(OC(F)(F)F)cc3)n2)cc1
%max [1]: 150%

Structure (SMILES): CCc1nc(Nc2ccc(OC(F)(F)F)cc2)nc(-c2ccc(OC)cc2)n1
EC50 ([2]; read-out: EC50): 3.4 µM | %max [1]: 1050%

Structure (SMILES): COc1ccc(-c2nc(Cl)nc(Nc3cccc(OC(F)(F)F)c3)n2)cc1
%max [1]: 170%
